Assay type in all cases: cell-based
Experiment [1] deals with MCF-7 breast cancer cells. Put plainly: SRB cell viability assay, MCF-7. The conditions noted are these: Homo sapiens, MCF7, MCF-7, Breast (ER+ PR+). Here is the method: (§1) The effect of OSC inhibition was evaluated in additional cancer cell lines as well. Cancer cell lines may be purchased from ATCC (Manassas, Va.). The SRB assay has been employed for determination of the inhibitory effects of RO 48-8071 on growth of different cancer cells. Cells were seeded into 96-well plates and incubated overnight at 37° C. with 5% CO2. The culture medium was removed after 24 hours, and cells were washed with DMEM/F12 medium and then treated with various concentrations of RO 48-8071 in 5% FBS culture medium for 24 and 48 hours. Surviving or adherent cells were fixed in situ by withdrawing the growth medium, adding 100 μl PBS and 100 μl 50% trichloroacetic acid and then incubating at 4° C. for one hour. Cells were washed with ice-cold water, dried at room temperature (RT), and then stained with 50 μl 4% SRB for eight minutes at RT. Unbound dye was removed by washing with cold 1% acetic acid for five times, and plates were dried at RT. Bound stain was solubilized with 150 μl 10 mM Tris buffer and absorbance of samples was read at 520 nm with a SpecTRA MAX 190 microplate reader (Molecular Devices, Sunnyvale, Calif.). Six wells were used for each concentration, and each experiment was performed two to three times.
Effect of RO 48-8071 on breast cancer cell line MCF-7 viability. […]

Experiment [2] has as its system ZR-75 breast cancer cells. Briefly: SRB cell viability assay, ZR-75. To be noted: ZR75, ZR-75, Breast (ER+ PR+). As for the experimental part:
as §1
Effect of RO 48-8071 on estrogen, progesterone, and HER-2/neu receptors positive breast cancer cell line HCC-1428 and ZR-75 viability. […]

For experiment [3], the system named is PC-3 prostate cancer cells. Put plainly: SRB cell viability assay, PC-3. The conditions noted are these: Homo sapiens. As for the experimental part: as §1
Effect of RO 48-8071 on prostate cancer cell line PC-3 viability. […]

The test system of experiment [4] is DU145 prostate cancer cells. Put plainly: SRB cell viability assay, DU145. The conditions noted are these: Homo sapiens. As for the experimental part:
as §1
Effect of RO 48-8071 on prostate cancer cell line DU145 viability. […] The culture mediums employed 10% FBS EMEM for culture and 5% FBS EMEM for treatment.

In experiment [5] the test system is LoVo colon cancer cells. Put plainly: SRB cell viability assay, LoVo. The conditions noted are these: Homo sapiens. Here is the method: as §1
Effect of RO 48-8071 on colon cancer cell LoVo viability. […] The culture mediums employed 10% FBS F-12K for culture and 5% FBS F-12K for treatment.

Experiment [6] relates to PC-3 and DU-145 human prostate cancer cells. Briefly: Annexin V / PI apoptosis assay, prostate cancer cells. To be noted: 24 hours. An excerpt: Apoptosis is a normal physiologic process which occurs during embryonic development as well as in maintenance of tissue homeostasis. The apoptotic program is characterized by certain morphologic features, including loss of plasma membrane asymmetry and attachment, condensation of the cytoplasm and nucleus, and internucleosomal cleavage of DNA. […]. In apoptotic cells, the membrane phospholipid phosphatidylserine (PS) is translocated from the inner to the outer leaflet of the plasma membrane, thereby exposing PS to the external cellular environment. Annexin V is a 35-36 kDa Ca2+ dependent phospholipid-binding protein that has a high affinity for PS, and binds to cells with exposed PS. Annexin V may be conjugated to fluorochromes including FITC. […]
FITC Annexin V staining precedes the loss of membrane integrity which accompanies the latest stages of cell death resulting from either apoptotic or necrotic processes. […] However, when apoptosis is measured over time, cells can be often tracked from FITC Annexin V and PI negative (viable, or no measurable apoptosis), to FITC Annexin V positive and PI negative (early apoptosis, membrane integrity is present) and finally to FITC Annexin V and PI positive (end stage apoptosis and death). […]

Where [7] appears, read: 24 hours, read-out: IC50 (μM) (24 hours).
[8] abbreviates: 48 hours, read-out: IC50 (μM) (48 hours).

For orientation: IC50 means the concentration that gives 50% inhibition.

The structures appear in SMILES notation. Counter-ions that a name gives are not always drawn. Like-named read-outs stand apart in the source and are kept apart here.

For the molecule `C=CCN(C)CCCCCCOc1ccc(C(=O)c2ccc(Br)cc2)c(F)c1` [Ro 48-8071, 4′-[6-(Allylmethylamino)hexyloxy]-4-bromo-2′-fluorobenzophenone fumarate], the IC50 amounted to 12.3 ± 0.585 µM in experiment [1] (setting [7]); 6.33 ± 0.344 µM in experiment [1] (setting [8]); 11 ± 0.289 µM in experiment [2] (setting [7]); 7.63 ± 0.304 µM in experiment [2] (setting [8]); 17.8 ± 1.29 µM in experiment [3] (setting [7]); 11.1 ± 0.35 µM in experiment [3] (setting [8]). Further, the IC50 is 13.5 ± 0.895 µM in experiment [4] (DU-145, 24 hours, read-out: IC50 (μM) (24 hours)); 8.61 ± 0.455 µM in experiment [4] (DU-145, 48 hours, read-out: IC50 (μM) (48 hours)); 9.461 ± 0.07 µM in experiment [5] (setting [7]); 3.27 ± 0.541 µM in experiment [5] (setting [8]). In addition, in experiment [6], the “apoptosis and cell death (annexin V / PI positive cells)” value was “Induces Apoptosis and Cell Death”.
